Assay results reported in article PMC6150173, “Tryptophan-Containing Cyclic Decapeptides with Activity against Plant Pathogenic Bacteria” (Molecules : A Journal of Synthetic Chemistry and Natural …, 2017).
Where “and” joins values, the source holds several entries; their conditions need not be identical. Equal entries are not always repeated. Peptide text beside a SMILES is read from it.

Columns and labels:
Format in all cases: cell-based
[1] = tested on: Erwinia amylovora PMV6076; test: Antibacterial activity (MIC), in vitro growth inhibition; settings: Table S1, MIC range
Description: (§1) Erwinia amylovora PMV6076 (Institut National de la Recherche Agronomique, Angers, France), Pseudomonas syringae pv. syringae EPS94 (Institut de Tecnologia Agroalimentària, Universitat de Girona, Spain), and Xanthomonas axonopodis pv. vesicatoria 2133-2 (Instituto Valenciano de Investigaciones Agrarias, Valencia, Spain) were used as bacterial strains. They were stored and cultivated as previously described.
(§2) The minimum inhibitory concentration (MIC) was analyzed as previously described at 0.8, 1.6, 3.1, 6.2, 12.5, 25 and 50 μM [20].

[2] = tested on: Pseudomonas syringae pv. syringae EPS94; test: as above; settings: Table S1, MIC range
Description: as §1, §2

[3] = tested on: Xanthomonas axonopodis pv. vesicatoria 2133-2; settings: Table S1, MIC range
Description: as §1, §2

[4] = tested on: erythrocyte suspensions of human blood; test: Hemolytic activity, hemoglobin release; settings: human blood erythrocytes 5% v/v, absorbance 540 nm, percentage compared to melittin, three replicates; for Hemolysis (%) at 50 µM: peptide 50 μM (table prints 50 µM); for Hemolysis (%) at 125 µM: peptide 125 μM (table prints 125 µM)
Description: The hemolytic activity of the compounds was evaluated at 50 and 125 μM by determining hemoglobin release from erythrocyte suspensions of human blood (5% v/v) (Oxoid) using absorbance at 540 nm, as previously described. Three replicates for each peptide concentration were used.

Structure (SMILES)	MIC Ea [1] [µM]	MIC Pss [2] [µM]	MIC Xav [3] [µM]	Hemolysis (%) at 50 µM [4] [%]	Hemolysis (%) at 125 µM [4]
CC(C)C[C@@H]1NC(=O)[C@H](CCCCN)NC(=O)[C@H](CCC(N)=O)NC(=O)[C@H](CC(C)C)NC(=O)[C@H](CCCCN)NC(=O)[C@H](CC(C)C)NC(=O)[C@H](Cc2c[nH]c3ccccc23)NC(=O)[C@H](CCCCN)NC(=O)[C@H](CCCCN)NC(=O)[C@H](CCCCN)NC1=O [BPC076W, c(KLKKKWLKLQ)] (cyclo(KKKWLKLQKL))	6.2 to 12.5	6.2 to 12.5	1.6 to 3.1	15	21%
CC(C)C[C@@H]1NC(=O)[C@H](CCC(N)=O)NC(=O)[C@H](CC(C)C)NC(=O)[C@H](CCCCN)NC(=O)[C@H](CC(C)C)NC(=O)[C@H](Cc2c[nH]c3ccccc23)NC(=O)[C@H](CCCCN)NC(=O)[C@H](CCCCN)NC(=O)[C@H](CCCCN)NC(=O)[C@H](CCCCN)NC1=O [BPC078W, c(LKKKKWLKLQ)] (cyclo(KKKKWLKLQL))	25 to 50	6.2 to 12.5	0.8 to 1.6	3	6%
CC(C)C[C@@H]1NC(=O)[C@H](CCCCN)NC(=O)[C@H](CCCCN)NC(=O)[C@H](Cc2c[nH]c3ccccc23)NC(=O)[C@H](CC(C)C)NC(=O)[C@H](CC(C)C)NC(=O)[C@H](CCCCN)NC(=O)[C@H](CCCCN)NC(=O)[C@H](CCCCN)NC(=O)[C@H](CCC(N)=O)NC1=O [BPC080W, c(KKKLLWKKLQ)] (cyclo(KKKLLWKKLQ))	12.5 to 25	6.2 to 12.5	0.8 to 1.6	3	4%
CC(C)C[C@@H]1NC(=O)[C@H](CCCCN)NC(=O)[C@H](CCCCN)NC(=O)[C@H](Cc2c[nH]c3ccccc23)NC(=O)[C@H](CC(C)C)NC(=O)[C@H](CCCCN)NC(=O)[C@H](CC(C)C)NC(=O)[C@H](CCCCN)NC(=O)[C@H](CCCCN)NC(=O)[C@H](CCC(N)=O)NC1=O [BPC082W, c(KKLKLWKKLQ)] (cyclo(KKLKLWKKLQ))	12.5 to 25	6.2 to 12.5	1.6 to 3.1	26	34%
CC(C)C[C@@H]1NC(=O)[C@H](CCCCN)NC(=O)[C@H](CCCCN)NC(=O)[C@H](Cc2c[nH]c3ccccc23)NC(=O)[C@H](CC(C)C)NC(=O)[C@H](CCCCN)NC(=O)[C@H](CCCCN)NC(=O)[C@H](CC(C)C)NC(=O)[C@H](CCCCN)NC(=O)[C@H](CCC(N)=O)NC1=O [BPC084W, c(KLKKLWKKLQ)] (cyclo(KKLQKLKKLW))	12.5 to 25	12.5 to 25	1.6 to 3.1	54	60%
CC(C)C[C@@H]1NC(=O)[C@H](CCC(N)=O)NC(=O)[C@H](CC(C)C)NC(=O)[C@H](CCCCN)NC(=O)[C@H](CCCCN)NC(=O)[C@H](Cc2c[nH]c3ccccc23)NC(=O)[C@H](CC(C)C)NC(=O)[C@H](CCCCN)NC(=O)[C@H](CCCCN)NC(=O)[C@H](CCCCN)NC1=O [BPC086W, c(LKKKLWKKLQ)] (cyclo(KKKLWKKLQL))	6.2 to 12.5	3.1 to 6.2	0.8 to 1.6	4	8% and ≤ 8%
CC(C)C[C@@H]1NC(=O)[C@H](CCCCN)NC(=O)[C@H](CCCCN)NC(=O)[C@H](Cc2c[nH]c3ccccc23)NC(=O)[C@H](CCCCN)NC(=O)[C@H](CC(C)C)NC(=O)[C@H](CC(C)C)NC(=O)[C@H](CCCCN)NC(=O)[C@H](CCCCN)NC(=O)[C@H](CCC(N)=O)NC1=O [BPC088W, c(KKLLKWKKLQ)] (cyclo(KKLLKWKKLQ))	12.5 to 25	6.2 to 12.5	1.6 to 3.1	14	19%
CC(C)C[C@@H]1NC(=O)[C@H](CCCCN)NC(=O)[C@H](CCCCN)NC(=O)[C@H](Cc2c[nH]c3ccccc23)NC(=O)[C@H](CCCCN)NC(=O)[C@H](CC(C)C)NC(=O)[C@H](CCCCN)NC(=O)[C@H](CC(C)C)NC(=O)[C@H](CCCCN)NC(=O)[C@H](CCC(N)=O)NC1=O [BPC090W, c(KLKLKWKKLQ)] (cyclo(KKLQKLKLKW))	12.5 to 25	6.2 to 12.5	1.6 to 3.1	9	15%
CC(C)C[C@@H]1NC(=O)[C@H](CCCCN)NC(=O)[C@H](CCCCN)NC(=O)[C@H](Cc2c[nH]c3ccccc23)NC(=O)[C@H](CCCCN)NC(=O)[C@H](CCCCN)NC(=O)[C@H](CC(C)C)NC(=O)[C@H](CC(C)C)NC(=O)[C@H](CCCCN)NC(=O)[C@H](CCC(N)=O)NC1=O [BPC094W, c(KLLKKWKKLQ)] (cyclo(KKLQKLLKKW))	25 to 50	6.2 to 12.5	3.1 to 6.2	35	42%
CC(C)C[C@@H]1NC(=O)[C@H](CCCCN)NC(=O)[C@H](CC(C)C)NC(=O)[C@H](CCC(N)=O)NC(=O)[C@H](CC(C)C)NC(=O)[C@H](CCCCN)NC(=O)[C@H](CCCCN)NC(=O)[C@H](Cc2c[nH]c3ccccc23)NC(=O)[C@H](CCCCN)NC(=O)[C@H](CCCCN)NC1=O [BPC096W, c(LKLKKWKKLQ)] (cyclo(KKLQLKLKKW))	12.5 to 25	6.2 to 12.5	1.6 to 3.1	10	15%
CC(C)C[C@@H]1NC(=O)[C@H](CCCCN)NC(=O)[C@H](CCCCN)NC(=O)[C@H](Cc2c[nH]c3ccccc23)NC(=O)[C@H](CCCCN)NC(=O)[C@H](CCCCN)NC(=O)[C@H](CCCCN)NC(=O)[C@H](CC(C)C)NC(=O)[C@H](CC(C)C)NC(=O)[C@H](CCC(N)=O)NC1=O [BPC098W, c(LLKKKWKKLQ)] (cyclo(KKKWKKLQLL))	12.5 to 25	3.1 to 6.2	1.6 to 3.1	12	18% and below 20%
CC(C)C[C@@H]1NC(=O)[C@H](CCCCN)NC(=O)[C@H](CCCCN)NC(=O)[C@H](CCCCN)NC(=O)[C@H](CCC(N)=O)NC(=O)[C@H](CCCCN)NC(=O)[C@H](CC(C)C)NC(=O)[C@H](CC(C)C)NC(=O)[C@H](Cc2c[nH]c3ccccc23)NC(=O)[C@H](CCCCN)NC1=O [BPC102W, c(KKKLKWLLKQ)] (cyclo(KKKLKWLLKQ))	12.5 to 25	3.1 to 6.2	6.2 to 12.5	12	17%
CC(C)C[C@@H]1NC(=O)[C@H](CCCCN)NC(=O)[C@H](CCCCN)NC(=O)[C@H](CCC(N)=O)NC(=O)[C@H](CCCCN)NC(=O)[C@H](CC(C)C)NC(=O)[C@H](CC(C)C)NC(=O)[C@H](Cc2c[nH]c3ccccc23)NC(=O)[C@H](CCCCN)NC(=O)[C@H](CCCCN)NC1=O [BPC104W, c(KKLKKWLLKQ)] (cyclo(KKLKKWLLKQ))	12.5 to 25	6.2 to 12.5	6.2 to 12.5	2	3%
CC(C)C[C@@H]1NC(=O)[C@H](CCCCN)NC(=O)[C@H](CCC(N)=O)NC(=O)[C@H](CCCCN)NC(=O)[C@H](CC(C)C)NC(=O)[C@H](CC(C)C)NC(=O)[C@H](Cc2c[nH]c3ccccc23)NC(=O)[C@H](CCCCN)NC(=O)[C@H](CCCCN)NC(=O)[C@H](CCCCN)NC1=O [BPC106W, c(KLKKKWLLKQ)] (cyclo(KKKWLLKQKL))	25 to 50	3.1 to 6.2	3.1 to 6.2	2	2%
CC(C)C[C@@H]1NC(=O)[C@H](CCC(N)=O)NC(=O)[C@H](CCCCN)NC(=O)[C@H](CC(C)C)NC(=O)[C@H](CC(C)C)NC(=O)[C@H](Cc2c[nH]c3ccccc23)NC(=O)[C@H](CCCCN)NC(=O)[C@H](CCCCN)NC(=O)[C@H](CCCCN)NC(=O)[C@H](CCCCN)NC1=O [BPC108W, c(LKKKKWLLKQ)] (cyclo(KKKKWLLKQL))	6.2 to 12.5	1.6 to 3.1	1.6 to 3.1	4	5% and ≤ 8%
CC(C)C[C@@H]1NC(=O)[C@H](CCCCN)NC(=O)[C@H](Cc2c[nH]c3ccccc23)NC(=O)[C@H](CC(C)C)NC(=O)[C@H](CC(C)C)NC(=O)[C@H](CCCCN)NC(=O)[C@H](CCCCN)NC(=O)[C@H](CCCCN)NC(=O)[C@H](CCC(N)=O)NC(=O)[C@H](CCCCN)NC1=O [BPC110W, c(KKKLLWKLKQ)] (cyclo(KKKLLWKLKQ))	12.5 to 25	3.1 to 6.2	6.2 to 12.5	3	4%
CC(C)C[C@@H]1NC(=O)[C@H](CCCCN)NC(=O)[C@H](CCC(N)=O)NC(=O)[C@H](CCCCN)NC(=O)[C@H](CC(C)C)NC(=O)[C@H](CCCCN)NC(=O)[C@H](Cc2c[nH]c3ccccc23)NC(=O)[C@H](CC(C)C)NC(=O)[C@H](CCCCN)NC(=O)[C@H](CCCCN)NC1=O [BPC114W, c(KLKKLWKLKQ)] (cyclo(KKLWKLKQKL))	12.5 to 25	3.1 to 6.2	1.6 to 3.1	29	38%
